Measurements reported in US20260317340A1, “COMPOUNDS, COMPOSITIONS, AND METHODS OF TREATING DISORDERS” (Chengdu Anticancer Bioscience, Ltd., priority 2023, published 2026).
Read-outs that look alike come from different tables or passages of the source.

Legend:
[1] = tested on: RPE-Neo or RPE-MYC or RPE-MYC expressing an EGFP-Histone 2B fusion protein; assay: Phenotypic screening assay: arrest in mitosis, change in DNA content (polyploidy), cell death; format: cell-based; details: 20 nM to 20 μM, 24, 48 or 72 hours
Method: (§1) Human cancer cell lines were obtained from ATCC and cultured in DMEM (Gibco, Cleveland, TN, USA) supplemented with 5% fetal bovine serum (Gibco), penicillin (100 U/mL)-streptomycin (100 μg/mL) (Gibco, Cat. No. 15140-122), 2 mM L-glutamine (Gibco, 200 mM solution, Cat. No. 25030081), and 1 mM sodium pyruvate (Gibco, 100 mM solution, Cat. No. 11360070) at 37° C. in a humidified incubator that was maintained at 5% CO2.
Screening was conducted as described before (Li et al. 2019). Briefly, RPE-Neo or RPE-MYC or RPE-MYC expressing an EGFP-Histone 2B fusion protein were passaged as batches of 96-well plates, 18-24 hours before exposure to the chemical compounds of the present disclosure at concentrations from 20 nM to 20 μM. At 24, 48 or 72 hours after initiation of treatment, cells were analyzed for either an arrest in mitosis or a change in DNA content by GE IN-Cell Analyzer 2000. MTT assays of cellular proliferation were performed as previously described (Li et al. 2019).
(§2) As set forth in table 2 below, an values of greater than or equal to 1 nM and less than or equal to 1.0 μM is marked “A”; a value greater than 1.00 μM and less than or equal to 10.0 μM is marked “B”; a value greater than 10.0 μM and less than or equal to 30.0 μM is marked “C”; and a value greater than 30.0 μM and less than 1000 μM is marked “D.”

RPE-Neo or RPE-MYC cells = assay: MTT assay of cellular proliferation (proliferative arrest); format: cell-based; details: read-out: Min. Effective conc. for Proliferative arrest (>50%)
Method: as §1
Screening was conducted as described before (Li et al. 2019). Briefly, RPE-Neo or RPE-MYC or RPE-MYC expressing an EGFP-Histone 2B fusion protein were passaged as batches of 96-well plates, 18-24 hours before exposure to the chemical compounds of the present disclosure at concentrations from 20 nM to 20 μM. At 24, 48 or 72 hours after initiation of treatment, cells were analyzed for either an arrest in mitosis or a change in DNA content by GE IN-Cell Analyzer 2000. MTT assays of cellular proliferation were performed as previously described (Li et al. 2019). […]
as §2

[2] = read-out: Min. Effective conc. for Along with Cell Death
[3] = ≥5%, read-out: Min. Effective conc. for Mitotic Arrest (≥5%)
[4] = ≥5%, read-out: Min. Effective conc. for Polyploidy (≥5%)

Measured: minimal effective concentration

Cc1cnc(C2=Cc3ccccc3N(Cc3ccc(C)c(F)c3)C(=O)C2)o1 [Compound 18, 1-(3-fluoro-4-methylbenzyl)-4-(5-methyloxazol-2-yl)-1,3-dihydro-2H-benzo[b]azepin-2-one]
0.001 to 1 µM: [1]; [2] | [1]; [3] | [1]; [4] | RPE-Neo or RPE-MYC cells

Cc1cnc(C2=Cc3ccc(Br)cc3N(Cc3ccc(C)c(F)c3)C(=O)C2)o1 [Compound 19, 8-bromo-1-(3-fluoro-4-methylbenzyl)-4-(5-methyloxazol-2-yl)-1,3-dihydro-2H-benzo[b]azepin-2-one]
0.001 to 1 µM: [1]; [2] | [1]; [3] | [1]; [4] | RPE-Neo or RPE-MYC cells

Cc1cnc(C2=Cc3ccc(-c4cnn(C)c4)cc3N(Cc3ccc(C)c(F)c3)C(=O)C2)o1 [Compound 20, 1-(3-fluoro-4-methylbenzyl)-8-(1-methyl-1H-pyrazol-4-yl)-4-(5-methyloxazol-2-yl)-1,3-dihydro-2H-benzo[b]azepin-2-one]
0.001 to 1 µM: [1]; [2] | [1]; [3] | [1]; [4] | RPE-Neo or RPE-MYC cells

Cc1cnc(C2=Cc3ccc(-c4cnn(C5CC5)c4)cc3N(Cc3ccc(C)c(F)c3)C(=O)C2)o1 [Compound 21, 8-(1-Cyclopropyl-1H-pyrazol-4-yl)-1-(3-fluoro-4-methylbenzyl)-4-(5-methyloxazol-2-yl)-1,3-dihydro-2H-benzo[b]azepin-2-one]
0.001 to 1 µM: [1]; [2] | [1]; [3] | [1]; [4] | RPE-Neo or RPE-MYC cells

Cc1cnc(C2=Cc3ccc(-c4cn[nH]c4)cc3N(Cc3ccc(C)c(F)c3)C(=O)C2)o1 [Compound 22, 1-(3-fluoro-4-methylbenzyl)-4-(5-methyloxazol-2-yl)-8-(1H-pyrazol-4-yl)-1,3-dihydro-2H-benzo[b]azepin-2-one]
0.001 to 1 µM: [1]; [2] | [1]; [3] | [1]; [4] | RPE-Neo or RPE-MYC cells

Cc1cnc(C2=Cc3ccc(-c4cccnc4)cc3N(Cc3ccc(C)c(F)c3)C(=O)C2)o1 [Compound 23, 1-(3-fluoro-4-methylbenzyl)-4-(5-methyloxazol-2-yl)-8-(pyridin-3-yl)-1,3-dihydro-2H-benzo[b]azepin-2-one]
0.001 to 1 µM: [1]; [2] | [1]; [3] | [1]; [4] | RPE-Neo or RPE-MYC cells

COc1ccc(CN2C(=O)CC(c3ncc(C)o3)=Cc3ccccc32)cc1 [Compound 24, 1-(4-methoxybenzyl)-4-(5-methyloxazol-2-yl)-1,3-dihydro-2H-benzo[b]azepin-2-one]
0.001 to 1 µM: [1]; [2] | [1]; [3] | [1]; [4] | RPE-Neo or RPE-MYC cells

COc1ccc(CN2C(=O)CC(c3ncc(C)o3)=Cc3ccc(Br)cc32)cc1 [Compound 25, 8-bromo-1-(4-methoxybenzyl)-4-(5-methyloxazol-2-yl)-1,3-dihydro-2H-benzo[b]azepin-2-one]
0.001 to 1 µM: [1]; [2] | [1]; [3] | [1]; [4] | RPE-Neo or RPE-MYC cells

COc1ccc(CN2C(=O)CC(c3ncc(C)o3)=Cc3ccc(N)cc32)cc1 [Compound 26, 8-amino-1-(4-methoxybenzyl)-4-(5-methyloxazol-2-yl)-1,3-dihydro-2H-benzo[b]azepin-2-one]
0.001 to 1 µM: [1]; [2] | [1]; [3] | [1]; [4] | RPE-Neo or RPE-MYC cells

COc1ccc(CN2C(=O)CC(c3ncc(C)o3)=Cc3ccc(O)cc32)cc1 [Compound 27, 8-hydroxy-1-(4-methoxybenzyl)-4-(5-methyloxazol-2-yl)-1,3-dihydro-2H-benzo[b]azepin-2-one]
0.001 to 1 µM: [1]; [2] | [1]; [3] | [1]; [4] | RPE-Neo or RPE-MYC cells

COc1ccc(CN2C(=O)CC(c3ncc(C)o3)=Cc3ccc(-c4ccsc4)cc32)cc1 [Compound 28, 1-(4-methoxybenzyl)-4-(5-methyloxazol-2-yl)-8-(thiophen-3-yl)-1,3-dihydro-2H-benzo[b]azepin-2-one]
0.001 to 1 µM: [1]; [2] | [1]; [3] | [1]; [4] | RPE-Neo or RPE-MYC cells

COc1ccc(CN2C(=O)CC(c3ncc(C)o3)=Cc3ccc(-c4ccoc4)cc32)cc1 [Compound 29, 8-(furan-3-yl)-1-(4-methoxybenzyl)-4-(5-methyloxazol-2-yl)-1,3-dihydro-2H-benzo[b]azepin-2-one]
0.001 to 1 µM: [1]; [2] | [1]; [3] | [1]; [4] | RPE-Neo or RPE-MYC cells

COc1ccc(CN2C(=O)CC(c3ncc(C)o3)=Cc3ccc(-c4cnn(C)c4)cc32)cc1 [Compound 30, 1-(4-methoxybenzyl)-8-(1-methyl-1H-pyrazol-4-yl)-4-(5-methyloxazol-2-yl)-1,3-dihydro-2H-benzo[b]azepin-2-one]
0.001 to 1 µM: [1]; [2] | [1]; [3] | [1]; [4] | RPE-Neo or RPE-MYC cells

COc1ccc(CN2C(=O)CC(c3ncc(C)o3)=Cc3ccc(-c4ccn(C)n4)cc32)cc1 [Compound 31, 1-(4-methoxybenzyl)-8-(1-methyl-1H-pyrazol-3-yl)-4-(5-methyloxazol-2-yl)-1,3-dihydro-2H-benzo[b]azepin-2-one]
0.001 to 1 µM: [1]; [2] | [1]; [3] | [1]; [4] | RPE-Neo or RPE-MYC cells

COc1ccc(CN2C(=O)CC(c3ncc(C)o3)=Cc3ccc(-c4cncn4C)cc32)cc1 [Compound 32, 1-(4-methoxybenzyl)-8-(1-methyl-1H-imidazol-5-yl)-4-(5-methyloxazol-2-yl)-1,3-dihydro-2H-benzo[b]azepin-2-one]
0.001 to 1 µM: [1]; [2] | [1]; [3] | [1]; [4] | RPE-Neo or RPE-MYC cells

COc1ccc(CN2C(=O)CC(c3ncc(C)o3)=Cc3ccc(-c4cn[nH]c4)cc32)cc1 [Compound 33, 1-(4-methoxybenzyl)-4-(5-methyloxazol-2-yl)-8-(1H-pyrazol-4-yl)-1,3-dihydro-2H-benzo[b]azepin-2-one]
0.001 to 1 µM: [1]; [2] | [1]; [3] | [1]; [4] | RPE-Neo or RPE-MYC cells

COc1ccc(CN2C(=O)CC(c3ncc(C)o3)=Cc3ccc(-c4cnn(C5CC5)c4)cc32)cc1 [Compound 34, 8-(1-cyclopropyl-1H-pyrazol-4-yl)-1-(4-methoxybenzyl)-4-(5-methyloxazol-2-yl)-1,3-dihydro-2H-benzo[b]azepin-2-one]
0.001 to 1 µM: [1]; [2] | [1]; [3] | [1]; [4] | RPE-Neo or RPE-MYC cells

COc1ccc(CN2C(=O)CC(c3ncc(C)o3)=Cc3ccc(-c4cnn(C5CCNCC5)c4)cc32)cc1 [Compound 35, 1-(4-methoxybenzyl)-4-(5-methyloxazol-2-yl)-8-(1-(piperidin-4-yl)-1H-pyrazol-4-yl)-1,3-dihydro-2H-benzo[b]azepin-2-one]
0.001 to 1 µM: [1]; [2] | [1]; [3] | [1]; [4] | RPE-Neo or RPE-MYC cells
